Assay results: US20250262185A1, “METHODS OF ADMINISTERING NEUROPSYCHIATRIC MEDICATIONS BASED ON RENAL IMPAIRMENT” (Sumitomo Pharma America, Inc., priority 2024, published 2025)
Where two headings read alike, the source gives them in different places.

Tests used:
[1] = target: hERG (Homo sapiens, UniProt Q12809); assay: toxicological studies, hERG inhibition; assay type: biochemical; details: concentrations up to 30 μM
[2] = Phase 1 pharmacokinetic study of SEP-363856 in subjects with severe renal impairment and ESRD compared to normal renal function (Example 1)
Procedure: Renal function was assessed according to estimated glomerular filtration rate (eGFR) calculated using the Modification of Diet in Renal Disease (MDRD) equation at Screening and Check-in. Estimates calculated using the Cockcroft-Gault equation were also reported. Subjects in Group 1 had severe renal impairment not requiring dialysis and subjects in Group 2 had ESRD requiring dialysis.
Healthy matched controls with normal renal function were enrolled to match (age, sex, weight, race) across the 2 groups. A healthy control could be matched to more than 1 renally impaired subject. Potential subjects were screened to assess their eligibility to enter the study within 28 days (Day −28 to Day −3) prior to dose administration (Day 1). Each subject completed 1 or 2 treatment periods (1 treatment period for Group 1 and normal healthy subjects with normal renal function and 2 treatment periods for Group 2).
Subjects in Group 1 and the normal healthy subjects were admitted into the Clinical Research Unit (CRU) on Day −2 and confined to the CRU until discharge on Day 5. […] No food was allowed for 4 hours post-dose. Subjects in Group 1 returned to the CRU for a Follow-up visit approximately 7 days after discharge (i.e., Day 12±2).
Subjects in Group 2 followed their established dialysis schedule. They were admitted into the CRU on Day −2 and confined to the CRU until discharge on Day 5. […]

[3] = in vivo
Text: Any of the embodiments of this disclosure can be practiced to prevent accumulation of SEP-103 in the body exceeding levels studied and deemed safe in preclinical toxicology studies. […].

[4] = clinical; details: both, human, plasma, oral, 25 mg
Procedure: (§1) Renal function was assessed according to estimated glomerular filtration rate (eGFR) calculated using the Modification of Diet in Renal Disease (MDRD) equation at Screening and Check-in.
(§2) Healthy controls with normal renal function were enrolled in an effort to approximately match demographics (age, sex, weight, race) across the 2 groups. Potential subjects were screened to assess their eligibility to enter the study within 28 days (Day −28 to Day −3) prior to dose administration (Day 1).
(§3) Nine healthy controls, 9 subjects with mild renal impairment, and 6 subjects with moderate renal impairment were enrolled.
(§4) Male and female subjects aged between 18 and 70 years (inclusive) with a body mass index (BMI) between 18.0 and 40.0 kg/m^2 (inclusive) were eligible for study inclusion. Subjects were in good health except for specific inclusion criteria related to the status of renal impairment.
(§5) Subjects fasted for a minimum of 8 hours before dosing, and an additional 4 hours post-dose; intake of water was restricted except for the period from 1-hour pre-dose through 1-hour post-dose.
(§6) Final Results: Results were obtained by fitting an ANOVA model to the natural log-transformed PK parameter, with renal function group as fixed effect and subject as random effect. Results were back transformed to obtain the geometric LS mean ratio and 90% CI.

[5] = Phase 1 pharmacokinetic study of SEP-856 in subjects with mild and moderate renal impairment compared to normal renal function (Example 3); details: for SEP-383103 AUC0-∞ Geo LS Mean / SEP-383103 Cmax Geo LS Mean: ANOVA; for SEP-383103 AUC0-∞ Geo LS Mean / SEP-383103 Cmax Geo LS Mean / MRAUC (metabolite-to-parent ratio based on AUC0-∞) / SEP-383103 plasma Cmax / SEP-383103 plasma Tmax: n=8; for MRAUC (metabolite-to-parent ratio based on AUC0-∞) / SEP-383103 plasma Cmax: GeoMean; for SEP-383103 plasma Cmax / SEP-383103 plasma Tmax: metabolite after single dose SEP-363856 25 mg; for SEP-383103 plasma Tmax: Median
Procedure: as §1, §2, §3, §4, §5, §6

[6] = final results, Moderate vs Healthy

Chain of hERG (Q12809 whole entry): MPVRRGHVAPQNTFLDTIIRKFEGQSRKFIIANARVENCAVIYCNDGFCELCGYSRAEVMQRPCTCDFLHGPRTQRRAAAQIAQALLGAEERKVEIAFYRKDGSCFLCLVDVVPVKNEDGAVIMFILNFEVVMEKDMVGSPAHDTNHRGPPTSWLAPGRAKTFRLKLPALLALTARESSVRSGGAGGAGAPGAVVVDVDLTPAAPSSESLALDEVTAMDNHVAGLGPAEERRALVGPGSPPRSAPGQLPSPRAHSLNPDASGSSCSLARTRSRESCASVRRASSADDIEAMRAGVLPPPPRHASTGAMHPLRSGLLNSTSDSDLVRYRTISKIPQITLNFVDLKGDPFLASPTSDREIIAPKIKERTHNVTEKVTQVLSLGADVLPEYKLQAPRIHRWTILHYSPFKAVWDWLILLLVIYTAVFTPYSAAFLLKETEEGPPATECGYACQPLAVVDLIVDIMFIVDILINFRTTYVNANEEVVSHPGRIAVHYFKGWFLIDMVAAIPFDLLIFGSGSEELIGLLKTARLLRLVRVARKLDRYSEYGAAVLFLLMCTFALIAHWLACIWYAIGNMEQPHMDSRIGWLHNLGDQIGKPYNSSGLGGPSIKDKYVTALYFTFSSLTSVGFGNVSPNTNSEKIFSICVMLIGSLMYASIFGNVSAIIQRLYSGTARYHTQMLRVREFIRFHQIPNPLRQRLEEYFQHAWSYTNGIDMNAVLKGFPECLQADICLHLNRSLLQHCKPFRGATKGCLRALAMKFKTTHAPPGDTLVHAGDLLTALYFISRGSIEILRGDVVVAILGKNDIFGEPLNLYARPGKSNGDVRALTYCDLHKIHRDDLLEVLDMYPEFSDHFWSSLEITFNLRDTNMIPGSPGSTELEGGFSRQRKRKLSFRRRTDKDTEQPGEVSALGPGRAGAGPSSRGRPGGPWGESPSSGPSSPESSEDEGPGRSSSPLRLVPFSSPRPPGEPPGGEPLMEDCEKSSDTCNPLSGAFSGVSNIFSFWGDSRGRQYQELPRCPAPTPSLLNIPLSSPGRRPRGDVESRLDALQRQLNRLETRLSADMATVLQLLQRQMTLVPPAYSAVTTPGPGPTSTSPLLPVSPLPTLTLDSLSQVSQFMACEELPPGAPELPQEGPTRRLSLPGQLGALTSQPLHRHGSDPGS

Structure (SMILES): O=C(O)[C@@H]1OCCc2ccsc21 [SEP-383103]
- hERG inhibition [1]: no hERG inhibition
- correlation between exposure (AUC0-∞ and AUC0-last) and renal function ([2]; human, in vivo): strong correlation
- metabolite median Tmax versus healthy subjects ([2]; severe renal impairment): delayed substantially
- blood concentration studied and deemed to be safe ([3]; dog): 1100 ng/mL
- exposure level studied and deemed to be safe ([3]; dog): 12200 ng·h/mL
- blood concentration studied and deemed to be safe ([3]; rat): 700 ng/mL
- exposure level studied and deemed to be safe ([3]; rat): 11700 ng·h/mL
- AUC(0-inf) [4]: 613 ng·h/mL
- correlation between exposure (AUC0-∞ and Cmax) and degree of renal impairment ([5]; final results): significant correlation
- SEP-383103 AUC0-∞ Geo LS Mean ([5]; final results, Mild): 769.5 ng·h/mL
- SEP-383103 Cmax Geo LS Mean ([5]; final results, Mild): 54.98 ng/mL
- SEP-383103 AUC0-∞ Geo LS Mean ([5]; final results, Moderate): 1043 ng·h/mL
- SEP-383103 Cmax Geo LS Mean ([5]; final results, Moderate): 56.30 ng/mL
- MRAUC (metabolite-to-parent ratio based on AUC0-∞) ([5]; final results, Healthy): 0.7348
- SEP-383103 AUC0-∞ Geo LS Mean Ratio ([5]; final results, Mild vs Healthy): 125.47%
- SEP-383103 Cmax Geo LS Mean Ratio ([5]; final results, Mild vs Healthy): 128.43%
- MRAUC (metabolite-to-parent ratio based on AUC0-∞) ([5]; final results, Mild): 0.9643
- SEP-383103 AUC0-∞ Geo LS Mean Ratio [5, 6]: 170.12%
- SEP-383103 Cmax Geo LS Mean Ratio [5, 6]: 131.50%
- MRAUC (metabolite-to-parent ratio based on AUC0-∞) ([5]; final results, Moderate): 1.276
- SEP-383103 plasma Cmax ([5]; final results, Mild): 54.98 ng/mL
- SEP-383103 plasma Tmax ([5]; final results, Mild): 5.000 h
- SEP-383103 plasma Cmax ([5]; final results, Moderate): 56.30 ng/mL
- SEP-383103 plasma Tmax ([5]; final results, Moderate): 6.000 h
- metabolite Tmax change ([5]; mild renal impairment vs healthy): no change
